Measurements: ChEMBL document CHEMBL5500324, “The potential of marine-derived piperazine alkaloids: Sources, structures and bioactivities” (Eur J Med Chem, 2024)
In brackets after ≈: the same amount, converted by molar mass.

Experiments:
[1] = tested on: HL-60; experiment: Cytotoxicity against human HL-60 cells assessed as reduction in cell viability by MTT assay; type: functional, cell-based
[2] = tested on: MOLT-4; experiment: Cytotoxicity against human MOLT-4 cells assessed as reduction in cell viability by MTT assay; type: functional, cell-based
[3] = tested on: Bel-7402; experiment: Cytotoxicity against human Bel-7402 cells assessed as reduction in cell viability measured for 48 hrs by MTT assay; type: functional, cell-based; conditions: Bel-7402, 48 h
[4] = tested on: A549; experiment: Cytotoxicity against human A549 cells assessed as reduction in cell viability measured for 48 hrs by MTT assay; type: functional, cell-based; conditions: A549, 48 h
[5] = tested on: SF-268; experiment: Cytotoxicity against human SF-268 cells assessed as reduction in cell growth incubated for 48 hrs by SRB assay; type: functional, cell-based; conditions: SF-268, 48 h
[6] = tested on: NCI-H460; experiment: Cytotoxicity against human NCI-H460 cells assessed as reduction in cell growth incubated for 48 hrs by SRB assay; type: functional, cell-based; conditions: NCI-H460, 48 h
[7] = tested on: MCF7; experiment: Cytotoxicity against human MCF7 cells assessed as reduction in cell growth incubated for 48 hrs by SRB assay; type: functional, cell-based; conditions: MCF7, 48 h
[8] = tested on: HepG2; experiment: Cytotoxicity against human HepG2 cells assessed as reduction in cell growth incubated for 48 hrs by SRB assay; type: functional, cell-based; conditions: HepG2, 48 h
[9] = tested on: P388; experiment: Cytotoxicity against mouse P388 cells; type: functional; conditions: read-out: ED50 (the source's name)
[10] = tested on: P388; experiment: Cytotoxicity against mouse P388 cells assessed as reduction in cell viability; type: functional; conditions: read-out: ED50 (the source's name)
[11] = tested on: SK-MEL-28; experiment: Cytotoxicity against human SK-MEL-28 cells assessed as inhibition of cell growth; type: functional, cell-based
[12] = tested on: P388; experiment: Cytotoxicity against mouse P388 cells assessed as inhibition of cell growth; type: functional, cell-based
[13] = tested on: HT-29; experiment: Cytotoxicity against human HT-29 cells assessed as inhibition of cell growth; type: functional, cell-based
[14] = tested on: A549; experiment: Cytotoxicity against human A549 cells assessed as inhibition of cell growth; type: functional, cell-based

C=C(C)[C@@H](O)Cn1c2c(c3ccc(OC)cc31)[C@H](O)[C@@]1(O)C(=O)N3CCC[C@H]3C(=O)N1[C@H]2C=C(C)C
IC50 [1]: 3.4 µM | IC50 [2]: 11 µM | IC50 [3]: 7 µM | IC50 [4]: 11 µM

CS[C@]1(CO)C(=O)N2[C@H]3C(=CC=C[C@@H]3OC(C)=O)C[C@@]2(SC)C(=O)N1C
IC50 [5]: 34 µM | IC50 [6]: 3.4 µM | IC50 [7]: 3.1 µM | IC50 [8]: 7 µM

CC(C)[C@]12SSS[C@]3(C(=O)N1C)[C@@H](O)C1(C45c6ccccc6N[C@H]4N4C(=O)[C@@]6(C(C)C)SS[C@]4(C(=O)N6C)[C@H]5O)c4ccccc4N[C@@H]1N3C2=O (some centres undefined)
EC50 [9]: 2.2 ng/mL (≈ 2.8 nM)

CO[C@@]12C(=O)N(C)[C@@H](CO)C(=O)N1[C@@H]1Nc3ccccc3C1(C13c4ccccc4N[C@@H]1N1C(=O)[C@@]4(C(C)C)SS[C@]1(C(=O)N4C)[C@@H]3O)[C@H]2O (some centres undefined)
EC50 [9]: 180 ng/mL (≈ 254 nM)

CO[C@@]12C(=O)N(C)[C@@H](CO)C(=O)N1[C@@H]1Nc3ccccc3C1(C13c4ccccc4N[C@@H]1N1C(=O)[C@@]4(C(C)C)SSSS[C@]1(C(=O)N4C)[C@H]3O)[C@@H]2O (some centres undefined)
EC50 [9]: 1050 ng/mL (≈ 1360 nM)

CC(C)[C@]12SS[C@]3(C(=O)N1C)[C@@H](O)C1(C45c6ccccc6N[C@H]4N4C(=O)[C@@]6(CO)SSS[C@]4(C(=O)N6C)[C@H]5O)c4ccccc4N[C@@H]1N3C2=O (some centres undefined)
EC50 [10]: 2.4 ng/mL (≈ 3.1 nM)

COc1cc2c(cc1O)CCN[C@@]21CS[C@@H]2c3c(OC(C)=O)c(C)c4c(c3[C@H](COC1=O)N1[C@@H]2[C@@H]2N[C@@H](Cc3cc(C)c(OC)c(O)c32)[C@@H]1O)OCO4
IC50 [11]: 5 ng/mL (≈ 6.69 nM) | IC50 [12]: 0.2 µM | IC50 [13]: 0.5 ng/mL (≈ 0.669 nM) | IC50 [14]: 0.2 ng/mL (≈ 0.267 nM)

CC(C)[C@]12SSSS[C@]3(C(=O)N1C)[C@@H](O)C1(C45c6ccccc6N[C@H]4N4C(=O)[C@@]6(C(C)C)SS[C@]4(C(=O)N6C)[C@H]5O)c4ccccc4N[C@@H]1N3C2=O (some centres undefined)
EC50 [9]: 2.1 ng/mL (≈ 2.57 nM)

CC(C)[C@]12SS[C@]3(C(=O)N1C)[C@@H](O)C1(C45c6ccccc6N[C@H]4N4C(=O)[C@@]6(C(C)C)SS[C@]4(C(=O)N6C)[C@H]5O)c4ccccc4N[C@@H]1N3C2=O (some centres undefined)
EC50 [9]: 3.8 ng/mL (≈ 5.05 nM)

COc1ccc2c(c1)N(CC=C(C)C)C(=O)[C@]21[C@H](C=C(C)C)N2C(=O)[C@@H]3CCCN3C(=O)[C@]2(O)[C@H]1O
IC50 [1]: 43.5 µM | IC50 [2]: 25.7 µM | IC50 [3]: 68.8 µM | IC50 [4]: 35.9 µM

COc1c(C)cc2c(c1O)[C@@H]1N[C@H](C2)[C@H](O)N2[C@H]1[C@@H]1SC[C@H](N)C(=O)OC[C@H]2c2c(O)c(OC)c(C)c(OC(C)=O)c21
IC50 [11]: 5 ng/mL (≈ 8.31 nM) | IC50 [12]: 10 µM | IC50 [13]: 10 ng/mL (≈ 16.6 nM) | IC50 [14]: 10 ng/mL (≈ 16.6 nM)

CN1C(=O)[C@]23Cc4ccccc4N2C(=O)[C@@]1(CO)SS3
IC50 [5]: 1.35 µM | IC50 [6]: 1.27 µM | IC50 [7]: 0.68 µM | IC50 [8]: 1.52 µM

CC(C)[C@]12SSS[C@]3(C(=O)N1C)[C@@H](O)C1(C45c6ccccc6N[C@H]4N4C(=O)[C@@]6(CO)SS[C@]4(C(=O)N6C)[C@H]5O)c4ccccc4N[C@@H]1N3C2=O (some centres undefined)
EC50 [9]: 4.4 ng/mL (≈ 5.69 nM)

CS[C@]1(CO)C(=O)n2c(cc3ccccc32)C(=O)N1C
IC50 [5]: 35.7 µM | IC50 [6]: > 100 µM | IC50 [7]: 29.5 µM | IC50 [8]: 28.9 µM

CC(C)[C@]12SSS[C@]3(C(=O)N1C)[C@@H](O)C1(c4c[nH]c5ccccc45)c4ccccc4N[C@@H]1N3C2=O (some centres undefined)
EC50 [10]: 46 ng/mL (≈ 87.7 nM)

CC(C)[C@]12SS[C@]3(C(=O)N1C)[C@@H](O)C1(C45c6ccccc6N[C@H]4N4C(=O)[C@@]6(CO)SS[C@]4(C(=O)N6C)[C@H]5O)c4ccccc4N[C@@H]1N3C2=O (some centres undefined)
EC50 [10]: 1.75 ng/mL (≈ 2.36 nM)

CC(C)[C@]12SS[C@]3(C(=O)N1C)[C@@H](O)C1(c4c[nH]c5ccccc45)c4ccccc4N[C@@H]1N3C2=O (some centres undefined)
EC50 [10]: 86 ng/mL (≈ 175 nM)

CC(C)[C@]12SSS[C@]3(C(=O)N1C)[C@@H](O)C1(C45c6ccccc6N[C@H]4N4C(=O)[C@@]6(CO)SSS[C@]4(C(=O)N6C)[C@H]5O)c4ccccc4N[C@@H]1N3C2=O (some centres undefined)
EC50 [9]: 4.3 ng/mL (≈ 5.34 nM)

CC(C)[C@]12SSS[C@]3(C(=O)N1C)[C@@H](O)C1(C45c6ccccc6N[C@H]4N4C(=O)[C@@]6(CO)SSSS[C@]4(C(=O)N6C)[C@H]5O)c4ccccc4N[C@@H]1N3C2=O (some centres undefined)
EC50 [9]: 4.6 ng/mL (≈ 5.5 nM)

COc1ccc2c(c1)N(CC=C(C)C)C(=O)[C@]21[C@H](C=C(C)C)N2C(=O)[C@]3(O)CCCN3C(=O)[C@]2(O)[C@H]1O
IC50 [1]: 45 µM | IC50 [2]: 25.7 µM | IC50 [3]: 17.5 µM | IC50 [4]: 35.5 µM

CSS[C@@]1(C(C)C)C(=O)N2C(=CC3(C45c6ccccc6N[C@H]4N4C(=O)[C@H](CO)N(C)C(=O)[C@@]4(O)[C@H]5O)c4ccccc4N[C@H]23)C(=O)N1C (some centres undefined)
EC50 [9]: 1100 ng/mL (≈ 1590 nM)

CC(C)[C@]12SSSS[C@]3(C(=O)N1C)[C@@H](O)C1(C45c6ccccc6N[C@H]4N4C(=O)[C@@]6(CO)SS[C@]4(C(=O)N6C)[C@H]5O)c4ccccc4N[C@@H]1N3C2=O (some centres undefined)
EC50 [9]: 3 ng/mL (≈ 3.73 nM)

CO[C@@]12C(=O)N(C)[C@@H](CO)C(=O)N1[C@@H]1Nc3ccccc3C1(C13c4ccccc4N[C@@H]1N1C(=O)[C@@]4(C(C)C)SS[C@]1(C(=O)N4C)[C@H]3O)[C@@H]2O (some centres undefined)
EC50 [9]: 1400 ng/mL (≈ 1980 nM)

CC(C)[C@]12SSSS[C@]3(C(=O)N1C)[C@@H](O)C1(c4c[nH]c5ccccc45)c4ccccc4N[C@@H]1N3C2=O (some centres undefined)
EC50 [10]: 56 ng/mL (≈ 101 nM)

COc1ccc2c3c(n(CC=C(C)C)c2c1)[C@H](C=C(C)C)N1C(=O)[C@@H]2CCCN2C(=O)[C@]1(O)C3=O
IC50 [1]: 1.9 µM | IC50 [2]: 25.7 µM | IC50 [3]: 25.6 µM | IC50 [4]: 16.9 µM

CC(C)[C@]12SS[C@]3(C(=O)N1C)[C@@H](O)C1(C45c6ccccc6N[C@H]4N4C(=O)[C@@]6(CO)SSSS[C@]4(C(=O)N6C)[C@H]5O)c4ccccc4N[C@@H]1N3C2=O (some centres undefined)
EC50 [10]: 1.85 ng/mL (≈ 2.3 nM)

CS[C@]1(C(C)C)C(=O)N2C(=CC3(C45c6ccccc6N[C@H]4N4C(=O)[C@H](CO)N(C)C(=O)[C@@]4(O)[C@H]5O)c4ccccc4N[C@H]23)C(=O)N1C (some centres undefined)
EC50 [9]: 15200 ng/mL (≈ 23000 nM)

CS[C@@]1(C(C)C)C(=O)N2C(=CC3(C45c6ccccc6N[C@H]4N4C(=O)[C@H](CO)N(C)C(=O)[C@@]4(O)[C@H]5O)c4ccccc4N[C@H]23)C(=O)N1C (some centres undefined)
EC50 [9]: 14800 ng/mL (≈ 22400 nM)

COc1c(C)cc2c(c1O)[C@H]1[C@@H]3[C@@H]4SC[C@H](N)C(=O)OC[C@@H](c5c(O)c(OC)c(C)c(OC(C)=O)c54)N3[C@@H](O)[C@@H](C2)N1C
IC50 [11]: 2 ng/mL (≈ 3.25 nM) | IC50 [12]: 2 µM | IC50 [13]: 2 ng/mL (≈ 3.25 nM) | IC50 [14]: 2 ng/mL (≈ 3.25 nM)

COc1ccc2c(c1)N(/C=C/C(C)(C)OO)C(=O)[C@]21[C@H](C=C(C)C)N2C(=O)[C@@H]3CCCN3C(=O)[C@]2(O)[C@H]1O
IC50 [1]: 2.3 µM | IC50 [2]: 3.1 µM | IC50 [3]: 98.4 µM | IC50 [4]: 3.1 µM

C=C(C)[C@H](O)Cn1c2c(c3ccc(OC)cc31)[C@H](O)[C@@]1(O)C(=O)N3CCC[C@H]3C(=O)N1[C@H]2C=C(C)C
IC50 [1]: 5.4 µM | IC50 [2]: 11 µM | IC50 [3]: 10.8 µM | IC50 [4]: 11.6 µM

CSS[C@]1(C(C)C)C(=O)N2C(=CC3(C45c6ccccc6N[C@H]4N4C(=O)[C@H](CO)N(C)C(=O)[C@@]4(O)[C@H]5O)c4ccccc4N[C@H]23)C(=O)N1C (some centres undefined)
EC50 [9]: 100 ng/mL (≈ 144 nM)

CO[C@@]12C(=O)N(C)[C@@H](C(C)C)C(=O)N1[C@@H]1Nc3ccccc3C1(C13c4ccccc4N[C@@H]1N1C(=O)[C@@]4(C(C)C)SSS[C@]1(C(=O)N4C)[C@@H]3O)[C@H]2O (some centres undefined)
EC50 [9]: 190 ng/mL (≈ 252 nM)
